Results from US20260151383A1, “HETEROCYCLIC COMPOUNDS AND USES THEREOF” (KayoThera Inc., priority 2022, published 2026).

Legend:
Type in all cases: biochemical
Conditions in all cases: recombinant enzyme, 20° C., activity level classes
hALDH1a3 = molecular target: T1, hALDH1a3 (Homo sapiens, UniProt P47895); assay: Aldh1a3 enzyme inhibition assay (resorufin fluorescence), human enzyme
T1 construct: made in house; host or cells: E. coli BL21-DE3
T1 sequence (P47895 1-512): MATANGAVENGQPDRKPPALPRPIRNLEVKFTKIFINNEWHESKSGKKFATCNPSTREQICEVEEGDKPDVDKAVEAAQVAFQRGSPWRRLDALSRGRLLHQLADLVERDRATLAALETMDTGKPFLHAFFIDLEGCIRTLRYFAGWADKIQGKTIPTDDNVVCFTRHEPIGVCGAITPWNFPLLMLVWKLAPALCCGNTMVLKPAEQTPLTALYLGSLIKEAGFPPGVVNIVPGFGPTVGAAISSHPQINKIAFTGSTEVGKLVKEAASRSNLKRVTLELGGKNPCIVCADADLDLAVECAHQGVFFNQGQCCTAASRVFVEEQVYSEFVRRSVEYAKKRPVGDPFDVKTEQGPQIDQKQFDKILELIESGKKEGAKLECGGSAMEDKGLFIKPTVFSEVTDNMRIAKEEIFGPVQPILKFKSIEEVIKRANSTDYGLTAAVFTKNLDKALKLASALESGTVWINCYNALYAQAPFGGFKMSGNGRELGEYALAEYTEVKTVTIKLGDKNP

hALDH1a2 = molecular target: T2, hALDH1a2 (Homo sapiens, UniProt O94788); assay: Aldh1a2 enzyme inhibition assay (resorufin fluorescence), human enzyme
T2 construct: made in house; host or cells: E. coli BL21-DE3
T2 sequence (O94788 1-518): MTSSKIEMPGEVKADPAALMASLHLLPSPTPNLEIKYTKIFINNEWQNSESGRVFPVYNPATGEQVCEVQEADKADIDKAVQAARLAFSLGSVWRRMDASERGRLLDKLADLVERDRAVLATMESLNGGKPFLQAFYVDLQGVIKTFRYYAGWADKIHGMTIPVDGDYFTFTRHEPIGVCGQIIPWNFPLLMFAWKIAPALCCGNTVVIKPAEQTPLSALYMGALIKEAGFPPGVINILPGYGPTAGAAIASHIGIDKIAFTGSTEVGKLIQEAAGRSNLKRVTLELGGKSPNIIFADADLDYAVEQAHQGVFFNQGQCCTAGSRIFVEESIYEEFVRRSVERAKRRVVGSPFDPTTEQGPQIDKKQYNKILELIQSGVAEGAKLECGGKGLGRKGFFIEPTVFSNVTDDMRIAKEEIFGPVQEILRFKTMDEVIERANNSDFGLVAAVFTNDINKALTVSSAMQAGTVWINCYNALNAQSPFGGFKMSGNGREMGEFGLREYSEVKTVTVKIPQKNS
From the text: (§1) Recombinant enzyme and inhibitor added immediately before assay. Reaction rate measured by resorufln fluorescence.

mALDH1a2 = molecular target: T3, mALDH1a2 (Mus musculus, UniProt Q62148); assay: Aldh1a2 enzyme inhibition assay (resorufin fluorescence), mouse enzyme
T3 construct: made in house; host or cells: E. coli BL21-DE3
T3 sequence (Q62148 1-518): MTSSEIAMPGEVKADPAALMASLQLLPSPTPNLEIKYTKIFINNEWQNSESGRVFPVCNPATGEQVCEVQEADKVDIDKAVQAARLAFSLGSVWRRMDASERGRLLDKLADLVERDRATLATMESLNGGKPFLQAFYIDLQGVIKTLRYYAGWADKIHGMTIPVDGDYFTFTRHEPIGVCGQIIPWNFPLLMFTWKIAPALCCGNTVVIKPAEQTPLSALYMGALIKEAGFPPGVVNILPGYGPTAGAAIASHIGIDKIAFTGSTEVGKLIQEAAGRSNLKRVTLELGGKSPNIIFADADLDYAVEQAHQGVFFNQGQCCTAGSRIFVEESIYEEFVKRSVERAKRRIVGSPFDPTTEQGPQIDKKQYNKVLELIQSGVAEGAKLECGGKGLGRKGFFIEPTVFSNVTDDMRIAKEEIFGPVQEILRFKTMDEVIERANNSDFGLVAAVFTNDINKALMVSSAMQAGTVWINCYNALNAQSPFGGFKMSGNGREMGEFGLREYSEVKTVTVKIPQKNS
From the text: as §1

mALDH1a3 = molecular target: T4, mALDH1a3 (Mus musculus, UniProt Q9JHW9); assay: Aldh1a3 enzyme inhibition assay (resorufin fluorescence), mouse enzyme
T4 construct: made in house; host or cells: E. coli BL21-DE3
T4 sequence (Q9JHW9 1-512): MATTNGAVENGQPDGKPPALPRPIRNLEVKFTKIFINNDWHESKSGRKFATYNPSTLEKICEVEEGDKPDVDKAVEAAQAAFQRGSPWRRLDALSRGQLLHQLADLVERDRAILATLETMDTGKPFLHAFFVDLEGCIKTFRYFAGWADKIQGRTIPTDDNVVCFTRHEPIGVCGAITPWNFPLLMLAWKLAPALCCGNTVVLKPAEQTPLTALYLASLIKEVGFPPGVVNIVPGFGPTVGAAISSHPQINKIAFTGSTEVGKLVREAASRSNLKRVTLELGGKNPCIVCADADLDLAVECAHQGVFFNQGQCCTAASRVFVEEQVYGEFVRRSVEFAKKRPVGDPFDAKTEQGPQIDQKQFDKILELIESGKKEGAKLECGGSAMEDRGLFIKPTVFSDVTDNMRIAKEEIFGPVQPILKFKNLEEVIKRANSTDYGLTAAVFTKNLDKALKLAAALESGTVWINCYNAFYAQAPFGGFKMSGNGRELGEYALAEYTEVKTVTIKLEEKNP
From the text: Recombinant enzyme and inhibitor added immediately before assay. Reaction rate measured by resorufin fluorescence.

SMILES	hAldh1a3 IC50 (hALDH1a3)	IC50 (hALDH1a2)	IC50 (mALDH1a2)	mAldh1a3 IC50 (mALDH1a3)	IC50 (hALDH1a3)	IC50 (mALDH1a3)
Cc1cc(NC(=O)c2ccncc2-c2ccccc2C#N)cc2c1NC(=O)CC2 [Compound 16]	No activity	> 5000 nM	> 5000 nM	No activity	–	–
CCc1sncc1C(=O)Nc1cc(C)c2c(c1)C1CC1C(=O)N2 (centres unmarked) [Compound 52]	–	< 100 nM	100 to 250 nM	–	100 to 250 nM	< 100 nM
Cc1c(Cl)c(NC(=O)c2scnc2CC(F)(F)F)cc2c1NC(=O)CC2 [Compound 80]	–	100 to 250 nM	250 to 1000 nM	–	–	–
CCc1scnc1C(=O)Nc1cc2c(c(C3CC3)c1)NC(=O)CC2 [Compound 45]	–	250 to 1000 nM	250 to 1000 nM	–	1000 to 5000 nM	100 to 250 nM
Cc1cc(NC(=O)c2ccncc2CC2(C)CC2)cc2c1NC(=O)CC2 [Compound 27]	–	100 to 250 nM	100 to 250 nM	–	< 100 nM	250 to 1000 nM
Cc1cc(NC(=O)c2scnc2CC(C)C)cc2c1NC(=O)CC2 [Compound 65]	–	1000 to 5000 nM	1000 to 5000 nM	–	100 to 250 nM	250 to 1000 nM
Cc1cc(NC(=O)c2scnc2C)cc2c1NC(=O)CC2 [Compound 67]	–	1000 to 5000 nM	1000 to 5000 nM	–	250 to 1000 nM	250 to 1000 nM
Cc1cc(NC(=O)c2ccncc2-c2cccc(O)c2)cc2c1NC(=O)CC2 [Compound 18]	No activity	1000 to 5000 nM	1000 to 5000 nM	No activity	–	–
CCc1ncsc1C(=O)Nc1cc2c(c(C)c1Cl)NC(=O)CC2 [Compound 81]	–	250 to 1000 nM	250 to 1000 nM	–	–	–
Cc1cc(NC(=O)c2ccncc2-c2ccc(C#N)cc2)cc2c1NC(=O)CC2 [Compound 14]	No activity	> 5000 nM	> 5000 nM	No activity	–	–
Cc1cc(NC(=O)c2ccncc2-c2ccccc2F)cc2c1NC(=O)CC2 [Compound 2, 3-(2-fluorophenyl)-N-(8-methyl-2-oxo-1,2,3,4-tetrahydroquinolin-6-yl)isonicotinamide]	–	100 to 250 nM	250 to 1000 nM	No activity	1000 to 5000 nM	–
O=C(Nc1cc(Cl)c2c(c1)C1CC1C(=O)N2)c1scnc1CC(F)(F)F (centres unmarked) [Compound 42]	–	250 to 1000 nM	1000 to 5000 nM	–	100 to 250 nM	< 100 nM
O=C1CCc2cc(NC(=O)c3scnc3-c3cccc(F)c3)ccc2N1 [Compound 6, 4-(3-fluorophenyl)-N-(2-oxo-1,2,3,4-tetrahydroquinolin-6-yl)thiazole-5-carboxamide]	–	1000 to 5000 nM	1000 to 5000 nM	–	< 100 nM	100 to 250 nM
O=C1CCc2cc(NC(=O)c3ccccc3-c3cccc(F)c3)cc(Cl)c2N1 [Compound 24]	–	100 to 250 nM	250 to 1000 nM	–	1000 to 5000 nM	> 5000 nM
O=C1CCc2cc(NC(=O)c3scnc3CC(F)(F)F)cc(Cl)c2N1 [Compound 35]	–	250 to 1000 nM	250 to 1000 nM	–	100 to 250 nM	< 100 nM
O=C(Nc1cc(Cl)c2c(c1)C1CC1C(=O)N2)c1scnc1CC(F)(F)F (centres unmarked) [Compound 37]	–	100 to 250 nM	100 to 250 nM	–	100 to 250 nM	< 100 nM
Cc1cc(OCCN(C)Cc2cccc(F)c2)cc2c1NC(=O)CC2 [Compound 10]	–	1000 to 5000 nM	1000 to 5000 nM	–	1000 to 5000 nM	1000 to 5000 nM
O=C1CCc2cc(NC(=O)c3ccncc3-c3ccccc3)ccc2N1 [Compound 21]	–	1000 to 5000 nM	1000 to 5000 nM	No activity	> 5000 nM	–
CCc1ncsc1C(=O)Nc1cc2c(c(C)c1F)NC(=O)CC2 [Compound 79]	–	250 to 1000 nM	250 to 1000 nM	–	–	–
Cc1c(F)c(NC(=O)c2scnc2CC(F)(F)F)cc2c1NC(=O)CC2 [Compound 78]	–	250 to 1000 nM	1000 to 5000 nM	–	–	–
CCc1ncsc1C(=O)Nc1cc(Cl)c2c(c1)CCC(=O)N2 [Compound 83]	–	< 100 nM	< 100 nM	–	–	–
